Laboratory results: PMC9730833, “Targeting OCT2 with Duloxetine to Prevent Oxaliplatin-induced Peripheral Neurotoxicity” (Cancer Research Communications, 2022)

Key:
Format in all cases: cell-based
[1] = target: T1, OCT2 (mOCT2) (Mus musculus, UniProt O70577); experiment: fluorescent substrate uptake in cells overexpressing mOCT2; uptake impaired in OCT1/[…](−/−) satellite glial cells
T1 construct: gene Slc22a2
T1 sequence (O70577 1-553): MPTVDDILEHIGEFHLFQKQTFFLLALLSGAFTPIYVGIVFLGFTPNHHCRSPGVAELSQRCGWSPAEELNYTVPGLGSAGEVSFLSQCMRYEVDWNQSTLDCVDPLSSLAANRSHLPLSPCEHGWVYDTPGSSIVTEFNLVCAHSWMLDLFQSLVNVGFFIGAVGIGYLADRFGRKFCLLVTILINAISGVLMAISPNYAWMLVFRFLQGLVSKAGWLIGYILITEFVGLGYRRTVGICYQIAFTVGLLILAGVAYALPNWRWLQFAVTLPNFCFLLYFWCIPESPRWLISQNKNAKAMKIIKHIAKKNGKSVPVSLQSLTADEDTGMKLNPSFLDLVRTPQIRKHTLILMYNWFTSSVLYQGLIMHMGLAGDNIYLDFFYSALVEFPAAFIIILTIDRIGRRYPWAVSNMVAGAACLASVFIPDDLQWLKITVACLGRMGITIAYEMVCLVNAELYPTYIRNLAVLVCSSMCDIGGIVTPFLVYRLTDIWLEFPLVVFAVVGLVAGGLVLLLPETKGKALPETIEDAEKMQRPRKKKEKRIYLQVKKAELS

[2] = target: T2, OCT2 (hOCT2) (Homo sapiens, UniProt O15244); experiment: fluorescent substrate uptake in HEK293 and Hela cells overexpressing hOCT2
T2 construct: gene SLC22A2
T2 sequence (O15244 1-555): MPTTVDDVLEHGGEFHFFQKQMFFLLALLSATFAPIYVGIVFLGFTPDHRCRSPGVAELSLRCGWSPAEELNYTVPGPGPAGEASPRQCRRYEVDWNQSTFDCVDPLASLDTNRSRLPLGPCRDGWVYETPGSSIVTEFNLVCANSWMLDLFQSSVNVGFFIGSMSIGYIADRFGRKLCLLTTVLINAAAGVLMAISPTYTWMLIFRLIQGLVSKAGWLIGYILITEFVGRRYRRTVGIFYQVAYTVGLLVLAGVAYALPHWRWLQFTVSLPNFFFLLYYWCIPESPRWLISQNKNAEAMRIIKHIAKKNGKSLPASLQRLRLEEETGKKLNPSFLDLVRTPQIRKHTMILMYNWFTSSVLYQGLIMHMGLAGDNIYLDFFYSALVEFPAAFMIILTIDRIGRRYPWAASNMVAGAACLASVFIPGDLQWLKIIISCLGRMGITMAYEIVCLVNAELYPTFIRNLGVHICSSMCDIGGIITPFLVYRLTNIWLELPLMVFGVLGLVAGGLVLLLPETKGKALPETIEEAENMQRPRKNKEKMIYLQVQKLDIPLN

[3] = target: T3, OCT2 (rOCT2) (Rattus norvegicus, UniProt Q9R0W2); experiment: inhibition of TEA uptake in HEK293 cells overexpressing rOCT2
T3 construct: gene Slc22a2
T3 sequence (Q9R0W2 1-555): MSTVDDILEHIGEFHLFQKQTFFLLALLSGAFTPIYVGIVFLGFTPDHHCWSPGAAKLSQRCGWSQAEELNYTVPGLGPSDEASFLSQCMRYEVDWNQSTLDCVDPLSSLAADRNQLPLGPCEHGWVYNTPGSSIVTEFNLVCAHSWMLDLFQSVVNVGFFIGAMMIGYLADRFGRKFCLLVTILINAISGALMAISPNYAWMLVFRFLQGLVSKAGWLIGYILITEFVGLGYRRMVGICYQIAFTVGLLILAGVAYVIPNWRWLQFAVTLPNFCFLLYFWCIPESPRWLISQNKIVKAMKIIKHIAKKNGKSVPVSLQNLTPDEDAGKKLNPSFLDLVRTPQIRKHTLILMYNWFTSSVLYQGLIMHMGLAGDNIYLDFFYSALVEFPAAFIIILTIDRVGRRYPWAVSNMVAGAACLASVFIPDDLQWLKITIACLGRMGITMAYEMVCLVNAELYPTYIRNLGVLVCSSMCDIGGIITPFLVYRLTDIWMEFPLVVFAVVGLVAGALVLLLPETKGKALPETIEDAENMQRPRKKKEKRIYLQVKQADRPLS

[4] = target: T2, OCT2 (hOCT2); experiment: inhibition of ASP uptake in Hela cells overexpressing hOCT2 ([…] in HEK293 cells)
[5] = target: T1, OCT2 (mOCT2); experiment: inhibition of TEA, oxaliplatin and ASP uptake in HEK293 cells overexpressing mOCT2; reversible on washout

## CN(C)c1ccc(C=Cc2cc[n+](C)cc2)cc1 [4-(4-(dimethylamino)styryl)-N-methylpyridinium iodide]
[1]
  fluorescent substrate uptake in cells overexpressing mOCT2; uptake impaired in O: ASP was taken up in OCT2-proficient cells and uptake was significantly impaired under OCT2-deficient conditions
[2]
  fluorescent substrate uptake in HEK293 and Hela cells overexpressing hOCT2: Concentration-dependent inhibition of OCT2-dependent ASP transport by duloxetine in HEK293 and Hela cells overexpressing hOCT2

## CNCC[C@H](Oc1cccc2ccccc12)c1cccs1 [duloxetine]
[3]
  inhibition of TEA uptake in HEK293 cells overexpressing rOCT2: These studies confirmed that duloxetine inhibits the transport of TEA by mouse, rat, and human OCT2.
[4]
  IC50: 3.98 µM
[5]
  inhibition of TEA, oxaliplatin and ASP uptake in HEK293 cells overexpressing mOC: These studies confirmed that duloxetine inhibits the transport of TEA by mouse, rat, and human OCT2.
